What all share (assay type): functional
The species entered for test [1] is Rattus norvegicus. Put plainly: Tested for effective concentration required to relax contraction induced by 30 mM KCl in rat aorta.
For test [2], the system named is Rattus norvegicus. The test is described as follows: Heart rate was determined in conscious male spontaneously hypertensive rats (SHR) at a dose of 0.3 mg/Kg.
Test [3] relates to Rattus norvegicus. The test is described as follows: Mean blood pressure was determined in conscious male SHR at a dose of 0.1 mg/Kg.
For test [4], the system named is Rattus norvegicus. The test is described as follows: Tested for antihypertensive activity, duration of action at the dose of 0.03 mg/Kg was determined; ranges from 7-8h.
The test system of test [5] is Rattus norvegicus. The test is described as follows: Heart rate was determined in conscious male spontaneously hypertensive rats (SHR) at a dose of 0.1 mg/Kg.
Test [6] relates to Rattus norvegicus. Put plainly: Antihypertensive activity in spontaneously hypertensive rats (SHR) expressed as dose required to produce fall in mean blood pressure (MBP) by peroral administration.
The subject of test [7] is Rattus norvegicus. Put plainly: Mean blood pressure was determined in conscious male spontaneously hypertensive rats (SHR) at a dose of 0.3 mg/Kg.
In test [8] the test system is Rattus norvegicus. The test is described as follows: Tested for antihypertensive activity in spontaneously hypertensive rats (SHR) as dose required to produce fall in mean blood pressure (MBP) by peroral administration.
Test [9] relates to Rattus norvegicus. Put plainly: Mean blood pressure was determined in conscious male spontaneously hypertensive rats (SHR) at a dose of 0.01 mg/Kg.
Test [10] has as its system Rattus norvegicus. Put plainly: Mean blood pressure was determined in conscious male spontaneously hypertensive rats (SHR) at a dose of 0.03 mg/Kg.
The test system of test [11] is Rattus norvegicus. Put plainly: Heart rate was determined in conscious male spontaneously hypertensive rats (SHR) at a dose of 0.01 mg/Kg dose.
For test [12], the system named is Rattus norvegicus. The test is described as follows: Heart rate was determined in conscious male spontaneously hypertensive rats (SHR) at a dose of 0.03 mg/Kg dose.

Take `CC1(C)Oc2ccc(C#N)cc2C(N2CCCC2=O)C1O` (stereo unspecified) [CROMAKALIM]: in [1], the EC50 was 150 nM.
In the case of `CC1(C)Oc2ccc(C#N)cc2[C@@H](N2CCCC2=O)[C@@H]1O` [LEVCROMAKALIM], the Heart rate was determined as 313 beats min-1 in [2] and 318 beats min-1 in test [5]. The Blood pressure was 146 mmHg in [3] and 153 mmHg in test [7]. This compound also gave a Duration of action in [4] of 7 h. For the same compound, the figures for the Dose in test [6] and in test [8] were 0.3 mg/kg and 0.1 mg/kg, respectively.
With `N#CCC/N=C(\S)C1=CC(CF)(CF)Oc2ccc([N+](=O)[O-])cc21`, in [4], the Duration of action came out at 7 h. Further, the Dose in test [6] came to 0.03 mg/kg; in [8], 0.01 mg/kg. The Blood pressure was determined as 156 mmHg in [9] and 155 mmHg in test [10]. For the same compound, the Heart rate in test [11] came out at 310 beats min-1; in [12], 323 beats min-1. The compound also yielded an EC50 in test [1] of 0.3 nM.

For orientation: EC50 means the concentration at which the effect is half-maximal. A low value points to higher potency in that assay.

(Values after ChEMBL document CHEMBL1127115, “Synthesis and antihypertensive activity of KC-399, a benzopyran K+ channel opener with long duration of action and less tachycardia” (Bioorg Med Chem Lett, 1993).)
